Read-outs that look alike come from different tables or passages of the source.
Experiments:
myeloma cells = tested on: myeloma cells; parameters: method as in PMID 17653574, PMID 23380051; conditions: cited from earlier work
Jurkat cells = tested on: Jurkat cells; parameters: method as in Hiraoka et al. 50; conditions: ref Hiraoka et al. 50; cited from earlier work
[1] = tested on: p53 in various tumor cell types; parameters: method as in PMID 17653574; conditions: cited from earlier work
[2] = plasma, intravenous administration, cited from earlier work
[3] = tested on: HaCaT cells (spontaneously immortalized human keratinocytes); assay: Kinetic toxicity assay (crystal violet) on HaCaT cells; type: cell-based; conditions: kinetic assay, 0.1, 1 and 10 μM, 5 days
Protocol: Depending on the characteristics of the cells, two different assays were performed. For adherently growing cells (HaCaT, HT-29, NCI-H460, SK-MEL-3, MG-63, Capan-1), cytotoxic and cytocidal effects were determined in the crystal violet assay, whereas for loosely adherent cells (LNCaP, SK-ES-1) and cells growing in suspension (HEL 92.1.7, Jurkat, U-937) the MTT-assay was used with minor modifications. In brief, 1.5 · 10^3 (HaCaT, HT-29, NCI-H460, SK-MEL-3, MG-63, Capan-1) or 5 · 10^3 (Jurkat, U-937, HEL92.1.7, LNCaP, SK-ES-1) cells per well were seeded into flat-bottom 96-well plates (Sarstedt, Nümbrecht, Germany). […] In case of the vehicle control and test compounds, the final DMSO concentration amounted to 0.1%. Absorbance was measured at 580 nm in a 96-well plate reader (GENios pro microplate reader, Tecan, Salzburg, Austria). Effects were quantified as previously described for both assays.

OCT1 = molecular target: T1, OCT1 (Homo sapiens, UniProt O15245); assay: Confocal laser scanning microscopy of ASP+ uptake, HEK-OCT1; type: cell-based; conditions: compound 5 15 μM; TPA 200 μM; ASP+ 1 μM
T1 construct: containing the full length SLC22A1 cDNA (NM_003057) encoding the human OCT1 protein; expressed in transfected cells
T1 sequence (O15245 1-554): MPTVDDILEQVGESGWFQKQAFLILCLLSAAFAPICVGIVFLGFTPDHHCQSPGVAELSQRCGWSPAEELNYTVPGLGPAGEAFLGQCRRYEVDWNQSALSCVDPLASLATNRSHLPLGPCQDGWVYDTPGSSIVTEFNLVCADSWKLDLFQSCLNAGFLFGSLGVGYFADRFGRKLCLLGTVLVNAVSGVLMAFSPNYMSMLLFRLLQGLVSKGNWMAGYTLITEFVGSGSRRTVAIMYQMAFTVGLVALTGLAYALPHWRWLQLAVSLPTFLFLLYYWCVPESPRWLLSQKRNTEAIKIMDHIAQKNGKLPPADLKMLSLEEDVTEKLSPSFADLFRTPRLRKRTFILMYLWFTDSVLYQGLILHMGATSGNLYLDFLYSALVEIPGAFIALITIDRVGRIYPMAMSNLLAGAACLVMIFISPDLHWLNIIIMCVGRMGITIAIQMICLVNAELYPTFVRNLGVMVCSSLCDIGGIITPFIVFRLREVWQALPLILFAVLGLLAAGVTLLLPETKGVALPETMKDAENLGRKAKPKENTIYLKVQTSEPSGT
Protocol: (§1) HEK-Co, HEK-OCT1 and HEK-OCT3 cells were seeded into 8-well μ-Slides (Ibidi, Munich, Germany) (2 · 10^4 cells/well) and allowed to attach for 48 hours. Prior to the staining procedure, the medium was replaced by PBS and the DNA probe Draq5 (5 μM) (Biostatus, Shepshed, UK) was added to each well. […] Subsequently, ASP^+ was added to reach a concentration of 1 μM, and the cells were incubated for 5 minutes in the dark. Imaging was performed with an Axiovert 200 M confocal microscope coupled to a Zeiss LSM 510 scanning device (Carl Zeiss, Oberkochen, Germany) using a Plan-Apochromat 63x/1.40 oil immersion objective. Draq5 was excited at 633 nm and fluorescence was detected using a 650 nm long-pass filter, ASP^+ was excited at 488 nm and detected using a 565/35 nm band-pass filter.

OCT3 = molecular target: T2, OCT3 (Homo sapiens, UniProt O75751); assay: Confocal laser scanning microscopy of ASP+ uptake, HEK-OCT3; type: cell-based; conditions: compound 5 15 μM; TPA 200 μM; ASP+ 1 μM
T2 construct: expressed in transfected cells; host or cells: HEK293 (HEK-OCT3)
T2 sequence (O75751 1-556): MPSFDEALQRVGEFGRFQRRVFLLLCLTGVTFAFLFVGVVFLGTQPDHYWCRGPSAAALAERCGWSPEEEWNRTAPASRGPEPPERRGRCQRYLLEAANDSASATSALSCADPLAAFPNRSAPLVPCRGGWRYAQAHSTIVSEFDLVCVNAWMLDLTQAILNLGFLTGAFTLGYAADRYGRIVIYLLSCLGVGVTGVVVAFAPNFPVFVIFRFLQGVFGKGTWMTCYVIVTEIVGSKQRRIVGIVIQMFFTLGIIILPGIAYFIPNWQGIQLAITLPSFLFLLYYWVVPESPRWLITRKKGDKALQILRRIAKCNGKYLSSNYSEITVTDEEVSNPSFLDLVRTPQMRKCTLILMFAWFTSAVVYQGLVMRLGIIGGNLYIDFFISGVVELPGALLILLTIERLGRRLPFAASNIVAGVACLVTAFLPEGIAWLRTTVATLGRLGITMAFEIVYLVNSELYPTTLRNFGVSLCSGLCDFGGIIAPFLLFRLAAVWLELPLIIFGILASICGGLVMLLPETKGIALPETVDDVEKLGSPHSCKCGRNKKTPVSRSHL
Protocol: as §1

## Cn1c(CCCC(=O)O)nc2cc(N(CCCl)CCCl)ccc21 [Compound 1, bendamustine, reference compound]
Myeloma cells
  IC50: ~100 µM
Jurkat cells
  IC50: ~50 µM
[1]
  concentration required for significant induction of p53 expression: ≥ 80 µM
[2]; converted, ref 51
  Cmax: ~17 µM
[2]; converted, ref 52
  Cmax: ~31 µM
[2]; ref 51
  Cmax: 6 µg/mL
[2]; ref 52
  Cmax: 11 µg/mL

## Cn1c(CCCC(=O)OCCN2CCOCC2)nc2cc(N(CCCl)CCCl)ccc21 [Compound 4]
[3]
  toxicity on HaCaT cells compared to tumor cells: preferential toxicity against tumor cells

## Cn1c(CCCC(=O)OCCN2CCCC2)nc2cc(N(CCCl)CCCl)ccc21 [Compound 5]
[3]
  toxicity on HaCaT cells compared to tumor cells: preferential toxicity against tumor cells
OCT1
  effect on OCT1 activity (ASP+ uptake, imaging): inhibited
OCT3
  effect on OCT3 activity (ASP+ uptake, imaging): inhibited
